Experimental data from a compilation of properties of binary mixtures (doi:10.1016/j.fluid.2015.01.011).

Assay: xn = mol fraction of the nth substance listed
Conditions: 100 kPa

CCOS(=O)(=O)[O-].CC[n+]1ccn(C)c1 + CC[n+]1ccn(C)c1.N#C[S-]
x2 = 0
Conditions | electrical conductivity [S/m] | viscosity [mPa·s]
298.15 K | 0.308 | 96.9
303.15 K | 0.382 | 76.5
308.15 K | 0.469 | 61.6
313.15 K | 0.57 | –
318.15 K | 0.678 | –
323.15 K | 0.871 | 35
328.15 K | – | 29.7
333.15 K | – | 25.6
338.15 K | – | 22.04
343.15 K | – | 19.23
348.15 K | – | 16.89

[N-]=C=S.[NH4+] + CC[n+]1ccn(C)c1.N#C[S-]
Conditions | electrical conductivity, x1 = 0.039 [S/m] | electrical conductivity, x1 = 0.099 [S/m] | electrical conductivity, x1 = 0.1395 [S/m] | viscosity, x1 = 0.039 [mPa·s] | viscosity, x1 = 0.099 [mPa·s] | viscosity, x1 = 0.1395 [mPa·s]
298.15 K | 2.07 | 2.05 | 1.86 | 25.9 | 29.9 | 31.6
303.15 K | 2.38 | 2.37 | 2.17 | 22 | 25.2 | 26.5
308.15 K | 2.72 | 2.72 | 2.5 | 18.84 | 21.4 | 22.5
313.15 K | – | 3.11 | 2.88 | – | 18.21 | 19.1
318.15 K | – | 3.52 | – | – | 16 | –
323.15 K | 3.97 | 3.98 | – | 12.59 | 14.03 | –
328.15 K | – | – | – | – | 12.4 | 12.88
333.15 K | – | – | – | 9.85 | – | 11.33
338.15 K | – | – | – | 9.01 | 9.9 | 10.24
343.15 K | – | – | – | 8.16 | 8.91 | –
348.15 K | – | – | – | 7.42 | – | 8.32
353.15 K | – | – | – | 6.68 | – | –

CC[n+]1ccn(C)c1.N#C[S-] + CCOS(=O)(=O)[O-].CC[n+]1ccn(C)c1
Conditions | electrical conductivity [S/m] | viscosity [mPa·s]
298.15 K, x1 = 0.199 | 0.421 | 96.4
298.15 K, x1 = 0.32 | 0.569 | 83.5
298.15 K, x1 = 0.429 | 0.745 | 65.3
298.15 K, x1 = 0.899 | 1.84 | 27.8
298.15 K, x1 = 0.9505 | 2.1 | 25
298.15 K, x1 = 1 | 2.32 | 23.1
303.15 K, x1 = 0.199 | 0.512 | 76.1
303.15 K, x1 = 0.32 | 0.696 | 66.5
303.15 K, x1 = 0.429 | 0.809 | 52.7
303.15 K, x1 = 0.67 | 1.38 | 35.8
303.15 K, x1 = 0.899 | 2.15 | 23.5
303.15 K, x1 = 0.9505 | 2.29 | 21.2
303.15 K, x1 = 1 | 2.67 | 19.68
308.15 K, x1 = 0.32 | 0.842 | 53.9
308.15 K, x1 = 0.429 | 1.09 | 43.1
308.15 K, x1 = 0.67 | 1.62 | 30
308.15 K, x1 = 0.899 | 2.5 | 20.07
308.15 K, x1 = 0.9505 | 2.79 | 18.2
308.15 K, x1 = 1 | 3.06 | 16.97
313.15 K, x1 = 0.199 | 0.733 | 61.2
313.15 K, x1 = 0.32 | 1 | 53.9
313.15 K, x1 = 0.67 | 1.88 | 30
313.15 K, x1 = 0.899 | 2.85 | 20.07
313.15 K, x1 = 0.9505 | 3.18 | 18.2
313.15 K, x1 = 1 | 3.47 | 16.97
318.15 K, x1 = 0.199 | 0.861 | 50.1
318.15 K, x1 = 0.32 | 1.19 | 44.4
318.15 K, x1 = 0.429 | 1.29 | –
318.15 K, x1 = 0.67 | 2.18 | –
318.15 K, x1 = 0.899 | 3.25 | –
318.15 K, x1 = 1 | 3.92 | 14.54
323.15 K, x1 = 0.199 | 1.02 | 34.7
323.15 K, x1 = 0.32 | 1.38 | 31.1
323.15 K, x1 = 0.429 | 1.52 | 25.7
323.15 K, x1 = 0.67 | 2.49 | 18.78
323.15 K, x1 = 0.9505 | 4.04 | 12.2
323.15 K, x1 = 1 | 4.38 | 11.49
328.15 K, x1 = 0.199 | – | 29.5
328.15 K, x1 = 0.32 | – | 26.6
328.15 K, x1 = 0.67 | – | 16.38
328.15 K, x1 = 0.899 | – | 11.78
328.15 K, x1 = 0.9505 | – | 10.86
328.15 K, x1 = 1 | – | 10.25
333.15 K, x1 = 0.199 | – | 25.3
333.15 K, x1 = 0.429 | – | 19.14
333.15 K, x1 = 0.67 | – | 14.35
333.15 K, x1 = 0.899 | – | 10.37
333.15 K, x1 = 0.9505 | – | 9.56
333.15 K, x1 = 1 | – | 9.02
338.15 K, x1 = 0.199 | – | 21.85
338.15 K, x1 = 0.32 | – | 19.89
338.15 K, x1 = 0.429 | – | 16.74
338.15 K, x1 = 0.67 | – | 12.76
338.15 K, x1 = 0.9505 | – | 8.75
338.15 K, x1 = 1 | – | 8.3
343.15 K, x1 = 0.199 | – | 19.06
343.15 K, x1 = 0.67 | – | 11.37
343.15 K, x1 = 0.899 | – | 8.53
343.15 K, x1 = 0.9505 | – | 7.92
343.15 K, x1 = 1 | – | 7.53
348.15 K, x1 = 0.199 | – | 16.75
348.15 K, x1 = 0.32 | – | 15.38
348.15 K, x1 = 0.429 | – | 13.08
348.15 K, x1 = 0.67 | – | 10.21
348.15 K, x1 = 0.899 | – | 7.74
348.15 K, x1 = 1 | – | 6.87
353.15 K, x1 = 0.199 | – | 14.87
353.15 K, x1 = 0.32 | – | 13.71
353.15 K, x1 = 0.429 | – | 11.68
353.15 K, x1 = 0.67 | – | 9.16
353.15 K, x1 = 0.899 | – | 6.96
353.15 K, x1 = 0.9505 | – | 6.48
353.15 K, x1 = 1 | – | 6.17

CC[n+]1ccn(C)c1.N#C[N-]C#N + CC[n+]1ccn(C)c1.N#C[S-]
Conditions | electrical conductivity, x2 = 0 [S/m] | electrical conductivity, x2 = 0.2585 [S/m] | electrical conductivity, x2 = 0.5112 [S/m] | electrical conductivity, x2 = 0.7603 [S/m] | viscosity, x2 = 0 [mPa·s] | viscosity, x2 = 0.2585 [mPa·s] | viscosity, x2 = 0.5112 [mPa·s] | viscosity, x2 = 0.7603 [mPa·s]
298.15 K | 2.84 | – | 2.51 | 2.41 | 14.78 | – | 18.27 | 20.62
303.15 K | 3.22 | 3.05 | 2.89 | 2.76 | 12.87 | 14.18 | 15.74 | 17.66
308.15 K | 3.63 | – | 3.27 | 3.14 | 11.3 | – | 13.7 | 15.3
313.15 K | 4.06 | 3.87 | 3.67 | 3.56 | 9.76 | 10.72 | 11.78 | 13.12
318.15 K | – | 4.33 | 4.14 | – | – | 9.75 | 10.66 | –
323.15 K | 5.02 | 4.81 | – | 4.48 | 8.01 | 8.73 | – | 10.47
328.15 K | – | – | – | – | 7.24 | – | 8.54 | 9.37
333.15 K | – | – | – | – | – | 6.92 | 7.51 | 8.25
338.15 K | – | – | – | – | 6 | – | 7.01 | 7.64
343.15 K | – | – | – | – | 5.51 | 5.94 | 6.4 | 6.95
348.15 K | – | – | – | – | 5.06 | 5.47 | – | 6.36
353.15 K | – | – | – | – | 4.52 | 4.89 | 5.25 | –

CC[n+]1ccn(C)c1.N#C[S-] + CC[n+]1ccn(C)c1.N#C[N-]C#N
x1 = 1
Conditions | electrical conductivity [S/m] | viscosity [mPa·s]
298.15 K | 2.32 | 23.1
303.15 K | 2.67 | 19.68
308.15 K | 3.06 | 16.97
313.15 K | 3.47 | 14.54
323.15 K | 4.38 | 11.49
333.15 K | – | 9.02
348.15 K | – | 6.87
353.15 K | – | 6.17

CC[n+]1ccn(C)c1.N#C[S-] + [N-]=C=S.[NH4+]
x2 = 0
Conditions | electrical conductivity [S/m] | viscosity [mPa·s]
298.15 K | 2.32 | 23.1
303.15 K | 2.67 | 19.68
308.15 K | 3.06 | 16.97
313.15 K | 3.47 | 14.54
318.15 K | 3.92 | 12.98
328.15 K | – | 10.25
333.15 K | – | 9.02
338.15 K | – | 8.3
343.15 K | – | 7.53
